The source of these data is article PMC9953701 (Biomedicines, 2023).

Values after ≈ are worked out from the molar mass of the structure shown. Read-outs that look alike come from different tables or passages of the source. Positions of bridges follow the written chain, without caps; N, C: chain ends. Residues, ends and D or L forms follow the SMILES beside them.

Data set [1] deals with Candida albicans ATCC 90028. It is filed as cell-based. The following applies: C. albicans; Control: two-step microdilution assay in Tris buffer 10 mM without salts; median of triplicates. The procedure:
(§1) The three bacterial strains—Escherichia coli ATCC 25922, Pseudomonas aeruginosa ATCC 27853, and Staphylococcus aureus ATCC 29213—as well as the fungal strain Candida albicans ATCC 90028 were provided by the Department of Clinical Bacteriology, Lund University Hospital. Bacillus subtilis CCUG 163B^T and Bacillus cereus CCUG 7414^T were obtained from the Department of Molecular Sciences, Swedish University of Agricultural Sciences.
(§2) Antimicrobial activities of the peptides were evaluated using the two-step microdilution assay, which is designed for testing AMPs without activity-inhibiting components. Briefly, bacteria were grown to the mid-logarithmic phase at 37 °C in 3% (w/v) tryptic soy broth (TSB) (Merck KGaA, Darmstadt, Germany). The microbial culture was washed twice by centrifugation and resuspension in 10 mM Tris buffer (pH 7.4 at 37 °C, adjusted by HCl). The microbial suspension was quantified by OD600, diluted, and transferred to 96-well untreated polystyrene microplates prepared with 2-fold serial dilutions of the peptides using 50,000 bacteria per well (all dilutions in Tris buffer). These were incubated for 5 h at 37 °C, after which 5 µL of 20% (w/v) TSB was added to each well and the microplates were re-incubated for an additional 6–12 h (depending on the growth rate of each organism). All MICs presented are the medians from triplicate experiments performed independently.
(§3) A two-step assay was supplemented with a physiological concentration of salts and diluted human serum and the MIC of the peptides was evaluated as in 4.6.

The subject of data set [2] is Pseudomonas aeruginosa ATCC 27853. The data set is classed as cell-based. The following applies: P. aeruginosa; Control: two-step microdilution assay in Tris buffer 10 mM without salts; median of triplicates. The procedure: as §1, §2, §3
For orientation: Dilution methods test growth across graded concentrations, often in twofold steps.

Data set [3] concerns Staphylococcus aureus ATCC 29213. The data set is classed as cell-based. The following applies: S. aureus; Control: two-step microdilution assay in Tris buffer 10 mM without salts; median of triplicates. The procedure:
as §1, §2, §3

For data set [4], the system named is Salmonella enterica serovar Typhimurium DA6192 wild type and LL-37-resistant mutants (waaY, phoP). Kind of data set: MIC against LL-37-resistant strains in buffer conditions. It is filed as cell-based. On the set-up: unit not given here. The following applies: 20 mM sodium phosphate buffer with 0.1% TSB, 16 to 20 h, 37 °C. As to the method: (§4) The LL-37 resistant mutants (DA22427 and DA23307) used in this study were derived from Salmonella enterica serovar Typhimurium DA6192, wild-type and cyclotides-resistant mutants (DA54114 and DA57107) were derived from E. coli MG1655 (wild type) and were kindly provided by Department of Medical Biochemistry and Microbiology, Uppsala University.
(§5) MIC measurements were performed in 20 mM sodium phosphate buffer (PBS), supplemented with 0.1% TSB in 96-well plates (round bottom, Nunc A/S, Roskilde, Denmark) in a total volume of 100 µL. The overnight cultures were diluted 5 × 10^5 CFU/mL in the same medium and 90 µL was transferred into the plates containing 10 µL of 2-fold diluted peptides. […] At least two independent experiments were performed with two technical replicates. In cyclotides, resistant mutant average MIC was reported.

Data set [5] has as its system E. coli MG1655 wild type and cyclotides-resistant mutants. Description: MIC against cyclotide-resistant strains in buffer conditions. It is filed as cell-based, Escherichia coli. On the set-up: unit not given here. As to the method: as §4, §5
For data set [6], the system named is Bacillus cereus CCUG 7414T. It is filed as cell-based. The following applies: CCUG 7414, 24 h.
Text: as §1
(§6) The standard broth microdilution assay was utilized to assess the MIC of designed peptides according to the guidelines of the Clinical and Laboratory Standards Institute (CLSI). Briefly, bacteria were grown in unbuffered Mueller–Hinton Broth (MHB, VWR International, Leuven, Belgium) as well as buffered (containing 50 mM NaHCO3) medium to the mid-logarithmic phase and were quantified by OD600. The bacterial suspension was diluted in the same medium to reach a final density of 1 × 10^6 colony-forming unit per milliliter (CFU/mL). A volume of 50 µL of the bacterial suspension was added to 96-well plates containing 50 µL of MHB in the absence (viability control) or the presence of the peptides at different concentrations (0.625–80 µM). […] MIC values were derived from 3 sets of independent experiments with different bacterial cultures.

Data set [7] relates to Bacillus subtilis CCUG 163BT. The data set is classed as cell-based. The following applies: CCUG 163, 24 h.
Text: as §1, §6

In data set [8] the target is T1, aureolysin from S. aureus (Staphylococcus aureus, UniProt P81177).
T1 construct: purchased
T1 sequence (P81177 209-509): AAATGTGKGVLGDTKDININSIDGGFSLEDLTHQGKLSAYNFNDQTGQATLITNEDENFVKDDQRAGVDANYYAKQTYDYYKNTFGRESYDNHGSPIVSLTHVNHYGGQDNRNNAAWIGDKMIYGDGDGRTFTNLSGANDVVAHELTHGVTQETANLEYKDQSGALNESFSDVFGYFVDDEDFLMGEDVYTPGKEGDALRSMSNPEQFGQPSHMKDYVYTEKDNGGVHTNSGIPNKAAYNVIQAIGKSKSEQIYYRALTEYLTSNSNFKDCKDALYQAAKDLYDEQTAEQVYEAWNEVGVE
Kind of data set: Stability in the presence of the protease aureolysin. The data set is classed as in vitro ADME. The following applies: peptide:enzyme 200:1, 37 °C, RP-HPLC-MS. As to the method: Peptide stability was also assayed in commercially available Gram-positive, S. aureus protease, aureolysin. […] All the samples were then incubated at 37 °C at different incubation times. The reaction was quenched by acidifying with 5 µL of 0.1% formic acid. The samples were analyzed on MS coupled to RP-HPLC.

Data set [9] is described as follows: Liposome leakage assay (carboxyfluorescein efflux). The following applies: E. coli lipid liposomes versus POPC/cholesterol liposomes, 45 min, 37 °C. As to the method: The liposome leakage assay was performed as described previously. In brief, the following lipids/lipid mixture was used: Escherichia coli polar lipid extract or 1-palmitoyl-2-oleoyl-sn-glycerol-3-phosphocoline1-palmitoyl-2-oleoyl-sn-glycerol (POPC, both from Avanti Polar Lipids, Alabaster, US-AL) and cholesterol (Sigma Aldrich). The lipid bilayers were formed on round-bottom flask walls by dissolving lipids in chloroform was evaporated under a flow of N2 and the lipid bilayer was placed in a vacuum overnight. Lipid bilayers were re-suspended in an aqueous solution of 100 mM 5(6)-carboxyfluorescein in 10 mM Tris buffer. […] Membrane permeability was measured by monitoring carboxyfluorescein efflux from the liposomes to the external low-concentration environment, resulting in loss of self-quenching and an increased fluorescence signal with excitation and emission wavelengths of 492 and 517 nm, respectively. […] The effect on liposome permeability for each peptide concentration was monitored for 45 min, at which point leakage had largely subsided. […] The EC50 values are (when applicable) calculated using sigmoidal dose–response curves, with the leakage percentage (0–100 constraints) as a function of the peptide concentration (log10), using GraphPad Prism.

The subject of data set [10] is Bacillus subtilis CCUG 163BT. The data set is classed as cell-based. The following applies: CCUG 163, 5 h. As to the method: as §1, §2
The subject of data set [11] is Escherichia coli ATCC 25922. The data set is classed as cell-based. The following applies: ATCC 25922, 24 h.
Text: as §1, §6

Data set [12] concerns Pseudomonas aeruginosa ATCC 27853. It is filed as cell-based. The following applies: ATCC 27853, 24 h.
Text: as §1, §6

The subject of data set [13] is Staphylococcus aureus ATCC 29213. It is filed as cell-based. The following applies: ATCC 29213, 24 h.
Text: as §1, §6

Setting [14] is: S. typhimurium phoP LL-37-resistant mutant.
The mark [15] stands for this setting: S. typhimurium waaY LL-37-resistant mutant.

Turning to `CC[C@H](C)[C@@H]1NC(=O)[C@H](CCCNC(=N)N)NC(=O)[C@@H]2CSSC[C@H](NC(=O)[C@H](CCCCN)NC(=O)[C@H]([C@@H](C)CC)NC(=O)[C@H](CCCNC(=N)N)NC(=O)[C@H](CCCCN)NC(=O)[C@H](C(C)C)NC(=O)[C@H]([C@@H](C)CC)NC(=O)[C@H](CCCNC(=N)N)NC(=O)[C@H](CCCCN)NC(=O)CNC(=O)CNC(=O)[C@@H]3CCCN3C(=O)CNC(=O)[C@H](CCCNC(=N)N)NC(=O)[C@H](CC(C)C)NC(=O)[C@H](Cc3ccccc3)NC(=O)[C@H](C)NC(=O)[C@H](CCCCN)NC1=O)C(=O)N[C@@H](Cc1ccccc1)C(=O)N[C@@H](CC(C)C)C(=O)N[C@@H](CCCNC(=N)N)C(=O)NCC(=O)N1CCC[C@H]1C(=O)NCC(=O)NCC(=O)N[C@@H](CCCCN)C(=O)N[C@@H](CCCNC(=N)N)C(=O)N[C@@H]([C@@H](C)CC)C(=O)N[C@@H](C(C)C)C(=O)N2` [cd4-CCPP] (cyclo(CFLRGPGGKRIVCRIKAFLRGPGGKRIVKRIK); disulfide 1-13), the MIC came to 0.625 µM in data set [1]; 0.625 µM in [2]; 0.625 µM in data set [3]; 2.5 in data set [4] (S. typhimurium WT (DA6192)); 1.25 in data set [4] (setting [14]); 1.25 in data set [4] (setting [15]). Also, the MIC was 0.25 in [5] (E. coli DA54114 cyclotide-resistant mutant, sodium phosphate buffer with 0.1% TSB, average MIC); 0.25 in data set [5] (E. coli DA57107 cyclotide-resistant mutant, sodium phosphate buffer with 0.1% TSB, average MIC); 0.37 in [5] (E. coli WT (MG1655), 20 mM sodium phosphate buffer with 0.1% TSB, 16 to 20 h, 37 °C); greater than 40 µM in data set [6]; greater than 40 µM in [7]. In [8], the “time for which the peptide was stable in aureolysin (stable for up to)” value is listed as no less than 8 h. Further, in data set [9], the “bacterial target selectivity relative to LL-37 (factor)” value turned out to be 6 fold.

Take `CC[C@H](C)[C@@H]1NC(=O)[C@H](CCCNC(=N)N)NC(=O)[C@@H]2CSSC[C@H](NC(=O)[C@H](CCCCN)NC(=O)[C@H]([C@@H](C)CC)NC(=O)[C@H](CCCNC(=N)N)NC(=O)[C@H](CCCCN)NC(=O)[C@H](C(C)C)NC(=O)[C@H]([C@@H](C)CC)NC(=O)[C@H](CCCNC(=N)N)NC(=O)[C@H](CCCCN)NC(=O)CNC(=O)CNC(=O)[C@H](C)NC(=O)CNC(=O)[C@H](CCCNC(=N)N)NC(=O)[C@H](CC(C)C)NC(=O)[C@H](Cc3ccccc3)NC(=O)[C@H](C)NC(=O)[C@H](CCCCN)NC1=O)C(=O)N[C@@H](Cc1ccccc1)C(=O)N[C@@H](CC(C)C)C(=O)N[C@@H](CCCNC(=N)N)C(=O)NCC(=O)N[C@@H](C)C(=O)NCC(=O)NCC(=O)N[C@@H](CCCCN)C(=O)N[C@@H](CCCNC(=N)N)C(=O)N[C@@H]([C@@H](C)CC)C(=O)N[C@@H](C(C)C)C(=O)N2` [cd4-CC] (cyclo(CFLRGAGGKRIVCRIKAFLRGAGGKRIVKRIK); disulfide 1-13): the MIC is 1.25 in data set [4] (S. typhimurium WT (DA6192)); 1.25 in [4] (setting [14]); 2.5 in data set [4] (setting [15]); 0.625 µM (≈ 2.19 µg/mL) in data set [10]; greater than 40 µM in [6]; greater than 40 µM in data set [7]. Besides, the MIC was 5 µM (≈ 17.5 µg/mL) in data set [11], 5 µM (≈ 17.5 µg/mL) in data set [12] and greater than 40 µM in data set [13].
